Measurements as given in patent US10711004B2 (Genentech, Inc., priority 2018, dated 2020).
Read-outs that look alike come from different tables or passages of the source.

Biological target: human TRPA1 channel (Homo sapiens (Human), UniProt O75762)
Experiment: hTRPA1 CHO Ca2+ FLIPR Tetra assay, block of cinnamaldehyde induced calcium influx
Assay type: cell-based
Conditions: CHO cells expressing TRPA1, Hill coefficient fixed to 1.5
How it was run: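 Calcium-dye-loaded TRPA1-expressing CHO cells in HBSS/20 mM HEPES pH 7.4, 0.02% BSA were preincubated with compound for 10 or 90 min at room temperature. Calcium influx evoked by roughly an EC50 concentration of cinnamaldehyde was then read on FLIPR Tetra; IC50 came from curve fits with a fixed Hill coefficient.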

[1] = read-out: hTRPA1 IC50 (10 min), compounds incubated 10 minutes at room temperature before cinnamaldehyde agonist
[2] = read-out: hTRPA1 IC50 (90 min), compounds incubated 90 minutes at room temperature before cinnamaldehyde agonist

human TRPA1 channel, sequence (O75762 whole entry): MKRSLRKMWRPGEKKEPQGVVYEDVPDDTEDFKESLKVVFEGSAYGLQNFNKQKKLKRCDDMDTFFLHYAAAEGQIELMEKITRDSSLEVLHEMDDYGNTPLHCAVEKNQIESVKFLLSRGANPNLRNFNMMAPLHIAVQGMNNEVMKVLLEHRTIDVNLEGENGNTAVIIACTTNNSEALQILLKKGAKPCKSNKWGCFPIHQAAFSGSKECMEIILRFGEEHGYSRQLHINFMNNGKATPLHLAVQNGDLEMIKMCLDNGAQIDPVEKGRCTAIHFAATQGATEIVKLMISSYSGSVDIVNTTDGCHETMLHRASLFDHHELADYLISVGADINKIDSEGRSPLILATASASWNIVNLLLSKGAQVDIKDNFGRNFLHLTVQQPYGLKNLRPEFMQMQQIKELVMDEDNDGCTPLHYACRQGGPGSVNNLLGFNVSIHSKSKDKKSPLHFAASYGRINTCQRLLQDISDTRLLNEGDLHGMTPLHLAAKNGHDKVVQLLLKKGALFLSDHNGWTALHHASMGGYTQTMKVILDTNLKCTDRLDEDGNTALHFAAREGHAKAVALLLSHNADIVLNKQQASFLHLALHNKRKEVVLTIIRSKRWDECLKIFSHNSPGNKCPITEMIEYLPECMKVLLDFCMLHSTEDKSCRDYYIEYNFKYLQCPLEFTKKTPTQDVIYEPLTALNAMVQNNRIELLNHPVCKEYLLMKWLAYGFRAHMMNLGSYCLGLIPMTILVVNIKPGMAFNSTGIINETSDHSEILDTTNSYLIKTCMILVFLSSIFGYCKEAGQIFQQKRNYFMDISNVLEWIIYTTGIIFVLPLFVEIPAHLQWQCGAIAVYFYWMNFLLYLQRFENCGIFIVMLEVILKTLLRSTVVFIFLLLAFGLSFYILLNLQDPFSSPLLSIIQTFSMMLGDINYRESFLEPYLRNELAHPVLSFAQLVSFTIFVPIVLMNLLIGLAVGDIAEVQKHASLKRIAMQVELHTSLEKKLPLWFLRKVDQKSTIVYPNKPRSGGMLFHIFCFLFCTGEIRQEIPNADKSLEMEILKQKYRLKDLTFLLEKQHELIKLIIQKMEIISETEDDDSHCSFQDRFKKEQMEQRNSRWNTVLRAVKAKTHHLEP

| Compound | IC50 [1] [nM] | IC50 [2] [nM] |
| --- | --- | --- |
| Cn1cnc2ncn(Cc3nc([C@H]4[C@@H]5CN(c6cncc(F)c6)C[C@@H]54)no3)c(=O)c21 [Example Compound 144, 1-((3-((1R,5S,6r)-3-(5-fluoropyridin-3-yl)-3-azabicyclo[3.1.0]hexan-6-yl)-1,2,4-oxadiazol-5-yl)methyl)-7-methyl-1,7-dihydro-6H-purin-6-one] | 363 | 89 |
| Cn1cnc2ncn(Cc3nc([C@H]4[C@@H]5CN(c6cncc(C(F)(F)F)c6)C[C@@H]54)no3)c(=O)c21 [Example Compound 145, 7-methyl-1-((3-((1R,5S,6r)-3-(5-(trifluoromethyl)pyridin-3-yl)-3-azabicyclo[3.1.0]hexan-6-yl)-1,2,4-oxadiazol-5-yl)methyl)-1,7-dihydro-6H-purin-6-one] | 797 | 480 |
| Cn1cnc2ncn(Cc3nc([C@H]4[C@@H]5CN(c6ccnc(Cl)c6)C[C@@H]54)no3)c(=O)c21 [Example Compound 146, 1-((3-((1R,5S,6r)-3-(2-chloropyridin-4-yl)-3-azabicyclo[3.1.0]hexan-6-yl)-1,2,4-oxadiazol-5-yl)methyl)-7-methyl-1,7-dihydro-6H-purin-6-one] | 460 | 100 |
| O=c1c2cccnc2ncn1Cc1nc([C@H]2C[C@H](Oc3cccc(F)c3)C2)no1 [Example Compound 147, 3-((3-((1r,3r)-3-(3-fluorophenoxy)cyclobutyl)-1,2,4-oxadiazol-5-yl)methyl)pyrido[2,3-d]pyrimidin-4(3H)-one] | 232 | 140 |
| Cn1cnc2cnn(Cc3nc([C@H]4[C@@H]5CN(c6cc(Cl)ccn6)C[C@@H]54)no3)c(=O)c21 [Example Compound 148, 5-((3-((1R,5S,6r)-3-(4-chloropyridin-2-yl)-3-azabicyclo[3.1.0]hexan-6-yl)-1,2,4-oxadiazol-5-yl)methyl)-3-methyl-3,5-dihydro-4H-imidazo[4,5-d]pyridazin-4-one] | 305 | 150 |
| Cn1nnc2ncn(Cc3nc([C@H]4C[C@](F)(c5ccc(Cl)cc5)C4)no3)c(=O)c21 [Example Compound 149, 6-((3-((1s,3s)-3-(4-chlorophenyl)-3-fluorocyclobutyl)-1,2,4-oxadiazol-5-yl)methyl)-1-methyl-1,6-dihydro-7H-[1,2,3]triazolo[4,5-d]pyrimidin-7-one] | 253 | 160 |
| Cn1cnc2ncn(Cc3nc([C@H]4[C@@H]5CN(c6ccc(-c7cnco7)cc6)C[C@@H]54)no3)c(=O)c21 [Example Compound 150, 7-methyl-1-((3-((1R,5S,6r)-3-(4-(oxazol-5-yl)phenyl)-3-azabicyclo[3.1.0]hexan-6-yl)-1,2,4-oxadiazol-5-yl)methyl)-1,7-dihydro-6H-purin-6-one] | 162 | 38 |
| O=c1c2cccnc2ncn1Cc1nc([C@H]2[C@@H]3CN(c4cc(F)ccn4)C[C@@H]32)no1 [Example Compound 154, 3-((3-((1R,5S,6r)-3-(4-fluoropyridin-2-yl)-3-azabicyclo[3.1.0]hexan-6-yl)-1,2,4-oxadiazol-5-yl)methyl)pyrido[2,3-d]pyrimidin-4(3H)-one] | 196 | 130 |
| Cn1cnc2ncn(Cc3nc([C@H]4[C@@H]5CN(C[C@@H](F)c6ccc(Cl)cc6)C[C@@H]54)no3)c(=O)c21 [Example Compound 156, 1-((3-((1R,5S,6S)-3-((S)-2-(4-chlorophenyl)-2-fluoroethyl)-3-azabicyclo[3.1.0]hexan-6-yl)-1,2,4-oxadiazol-5-yl)methyl)-7-methyl-1,7-dihydro-6H-purin-6-one] | 843 | 860 |
| O=c1c2cccnc2ncn1Cc1nc([C@H]2[C@@H]3C=C(c4cc(Cl)ccn4)C[C@@H]32)no1 [Example Compound 161, 3-((3-((1S,5S,6R)-3-(4-chloropyridin-2-yl)bicyclo[3.1.0]hex-2-en-6-yl)-1,2,4-oxadiazol-5-yl)methyl)pyrido[2,3-d]pyrimidin-4(3H)-one] | 315 | 200 |
| O=c1c2cccnc2ncn1Cc1nc([C@@H]2[C@H]3C=C(c4cc(Cl)ccn4)C[C@H]32)no1 [Example Compound 162, 3-((3-((1R,5R,6S)-3-(4-chloropyridin-2-yl)bicyclo[3.1.0]hex-2-en-6-yl)-1,2,4-oxadiazol-5-yl)methyl)pyrido[2,3-d]pyrimidin-4(3H)-one] | 132 | 88 |

The next molecules have a lower IC50 [1] than those just listed; values first:

| IC50 [1] [nM] | IC50 [2] [nM] | Compound |
| --- | --- | --- |
| 119 | 68 | Cn1cnc2ncn(Cc3nc([C@@H]4[C@H]5C=C(c6cc(Cl)ccn6)C[C@H]54)no3)c(=O)c21 [Example Compound 159, 1-((3-((1R,5R,6S)-3-(4-chloropyridin-2-yl)bicyclo[3.1.0]hex-2-en-6-yl)-1,2,4-oxadiazol-5-yl)methyl)-7-methyl-1,7-dihydro-6H-purin-6-one] |
| 98.9 | 59 | O=c1c2cccnc2cnn1Cc1nc([C@H]2C[C@](F)(c3ccc(Cl)cc3)C2)no1 [Example Compound 157, 6-((3-((1s,3s)-3-(4-chlorophenyl)-3-fluorocyclobutyl)-1,2,4-oxadiazol-5-yl)methyl)pyrido[2,3-d]pyridazin-5(6H)-one] |
| 95.7 | 60 | O=c1c2cccnc2cnn1Cc1nc([C@H]2[C@@H]3CN(c4cc(F)ccn4)C[C@@H]32)no1 [Example Compound 153, 6-((3-((1R,5S,6r)-3-(4-fluoropyridin-2-yl)-3-azabicyclo[3.1.0]hexan-6-yl)-1,2,4-oxadiazol-5-yl)methyl)pyrido[2,3-d]pyridazin-5(6H)-one] |
| 91.5 | 31 | Cn1cnc2ncn(Cc3nc([C@H]4[C@@H]5C=C(c6cc(Cl)ccn6)C[C@@H]54)no3)c(=O)c21 [Example Compound 160, 1-((3-((1S,5S,6R)-3-(4-chloropyridin-2-yl)bicyclo[3.1.0]hex-2-en-6-yl)-1,2,4-oxadiazol-5-yl)methyl)-7-methyl-1,7-dihydro-6H-purin-6-one] |
| 89.3 | 73 | Cn1ncc2ncn(Cc3nc([C@H]4[C@@H]5CN(c6cc(Cl)ccn6)C[C@@H]54)no3)c(=O)c21 [Example Compound 155, 6-((3-((1R,5S,6r)-3-(4-chloropyridin-2-yl)-3-azabicyclo[3.1.0]hexan-6-yl)-1,2,4-oxadiazol-5-yl)methyl)-1-methyl-1,6-dihydro-7H-pyrazolo[4,3-d]pyrimidin-7-one] |
| 71.3 | 23 | Cn1cc(-c2cc(Cl)cc(N3C[C@@H]4[C@H](C3)[C@H]4c3noc(Cn4cnc5ncn(C)c5c4=O)n3)c2)cn1 [Example Compound 163, 1-((3-((1R,5S,6r)-3-(3-chloro-5-(1-methyl-1H-pyrazol-4-yl)phenyl)-3-azabicyclo[3.1.0]hexan-6-yl)-1,2,4-oxadidzol-5-yl)methyl)-7-methyl-1,7-dihydro-6H-purin-6-one] |
| 58.7 | 41 | O=c1c2cccnc2cnn1Cc1nc([C@H]2[C@@H]3CN(c4ccnc(F)c4)C[C@@H]32)no1 [Example Compound 152, 6-((3-((1R,5S,6r)-3-(2-fluoropyridin-4-yl)-3-azabicyclo[3.1.0]hexan-6-yl)-1,2,4-oxadiazol-5-yl)methyl)pyrido[2,3-d]pyridazin-5(6H)-one] |
| 40 | 38 | O=c1c2cccnc2ncn1Cc1nc([C@H]2[C@@H]3CN(c4ccc(Cl)cn4)C[C@@H]32)no1 [Example Compound 151, 3-((3-((1R,5S,6r)-3-(5-chloropyridin-2-yl)-3-azabicyclo[3.1.0]hexan-6-yl)-1,2,4-oxadiazol-5-yl)methyl)pyrido[2,3-d]pyrimidin-4(3H)one] |
| 37.6 |  | Cc1cc(C#N)nc2ncn(Cc3nc([C@H]4C[C@](F)(c5ccc(F)cc5)C4)no3)c(=O)c12 [Example Compound 166, 3-((3-((1s,3s)-3-fluoro-3-(4-fluorophenyl)cyclobutyl)-1,2,4-oxadiazol-5-yl)methyl)-5-methyl-4-oxo-3,4-dihydropyrido[2,3-d]pyrimidine-7-carbonitrile] |
| 33.7 | 28 | Cc1ccnc2ncn(Cc3nc([C@H]4C[C@](F)(c5cccc(F)c5)C4)no3)c(=O)c12 [Example Compound 143, 3-((3-((1s,3s)-3-fluoro-3-(3-fluorophenyl)cyclobutyl)-1,2,4-oxadiazol-5-yl)methyl)-5-methylpyrido[2,3-d]pyrimidin-4(3H)-one] |
| 22.2 |  | Cc1ccnc2ncn(Cc3nc([C@H]4[C@@H]5Oc6c(Cl)cccc6[C@@H]54)no3)c(=O)c12 [Example Compound 165, 3-((3-((1S,1aR,6bS)-3-chloro-1a,6b-dihydro-1H-cyclopropa[b]benzofuran-1-yl)-1,2,4-oxadiazol-5-yl)methyl)-5-methylpyrido[2,3-d]pyrimidin-4(3H)-one] |
| 19.4 | 10 | Cc1cc(C#N)nc2ncn(Cc3nc([C@H]4C[C@](F)(c5ccc(Cl)cc5)C4)no3)c(=O)c12 [Example Compound 158, 3-((3-((1s,3s)-3-(4-chlorophenyl)-3-fluorocyclobutyl)-1,2,4-oxadiazol-5-yl)methyl)-5-methyl-4-oxo-3,4-dihydropyrido[2,3-d]pyrimidine-7-carbonitrile] |
| 15.2 | 12 | Cn1cnc2ncn(Cc3nc([C@@H]4[C@H]5C=C(c6ccc(Cl)cc6)C[C@H]54)no3)c(=O)c21 [Example Compound 142, 1-((3-((1R,5R,6S)-3-(4-chlorophenyl)bicyclo[3.1.0]hex-2-en-6-yl)-1,2,4-oxadiazol-5-yl)methyl)-7-methyl-1,7-dihydro-6H-purin-6-one] |
| 15.1 |  | Cc1ccnc2ncn(Cc3nc([C@H]4C[C@H](c5ccc(F)cc5)C4)no3)c(=O)c12 [Example Compound 164, 3-((3-((1r,3r)-3-(4-fluorophenyl)cyclobutyl)-1,2,4-oxadiazol-5-yl)methyl)-5-methylpyrido[2,3-d]pyrimidin-4(3H)-one] |
